Tests used:
[1] = target: T1, LXRα ligand binding domain (Homo sapiens, UniProt Q13133); experiment: Ligand Sensing Assay for LXRα agonist activity; assay type: biochemical; conditions: 1 μM; over a background reading of 10000 fluorescence units
T1 construct: His tag; made in house
T1 sequence (Q13133 183-447): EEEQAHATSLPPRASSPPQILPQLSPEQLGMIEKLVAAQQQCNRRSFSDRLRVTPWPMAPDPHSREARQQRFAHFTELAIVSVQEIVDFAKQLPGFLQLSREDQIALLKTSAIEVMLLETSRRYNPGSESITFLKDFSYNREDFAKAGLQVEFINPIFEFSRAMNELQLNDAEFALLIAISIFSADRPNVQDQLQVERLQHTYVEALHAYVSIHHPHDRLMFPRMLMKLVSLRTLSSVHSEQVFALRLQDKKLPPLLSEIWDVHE
T1 sequence (Q15788 676-700 partner): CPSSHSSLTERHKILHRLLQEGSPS
Protocol: Test Method 2: Ligand Sensing Assay for LXRα Agonist Activity
The assay for LXRα was run according to the procedures of Test Method 1, above using his-tagged LXRα ligand binding domain (amino acids 183-447 of Genbank accession number U22662, with the 14th amino acid corrected to A from R). In this assay 1 μM 24(S),25-epoxycholesterol gave a reading of 20000 fluorescence units over a background reading of 10000 fluorescence units.

[2] = target: T2, human LXRβ ligand binding domain (Homo sapiens, UniProt P55055); experiment: Ligand Sensing Assay (LiSA) for LXRβ agonist activity (SRC1 peptide recruitment); assay type: biochemical; conditions: 1 μM; over a background reading of 10000 fluorescence units
T2 construct: made in house; host or cells: E. coli BL21 (DE3), pRSETa
T2 sequence (P55055 184-460 limits assumed): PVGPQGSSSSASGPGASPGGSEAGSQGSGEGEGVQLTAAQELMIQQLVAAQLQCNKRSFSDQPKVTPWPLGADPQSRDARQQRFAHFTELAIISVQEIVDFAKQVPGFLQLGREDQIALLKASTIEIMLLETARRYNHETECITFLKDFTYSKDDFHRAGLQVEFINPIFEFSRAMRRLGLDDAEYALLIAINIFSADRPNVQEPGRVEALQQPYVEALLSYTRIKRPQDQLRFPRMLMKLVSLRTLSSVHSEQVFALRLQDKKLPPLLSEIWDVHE
T2 sequence (Q15788 676-700 partner limits assumed): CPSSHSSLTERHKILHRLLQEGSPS
Source text: Test Method 1: Ligand Sensing Assay (LiSA) for LXRβ Agonist Activity
This assay measures the recruitment of a peptide derived from the coactivator protein, SRC1, to the agonist-bound LXR[…]. Peptides derived from other nuclear receptor cofactors may be similarly prepared and assayed.
To generate the human LXRβ ligand binding domain suitable for LISA, a modified polyhistidine tag (MKKGHHHHHHG) (SEQ ID No. 1) was fused in frame to the human LXRβ ligand binding domain (amino acids 185-461 of Genbank accession number U07132) and subcloned into the expression vector pRSETa (Invitrogen) under the control of an IPTG inducible T7 promoter. The human LXRβ ligand binding domain was expressed in E. coli strain BL21 (DE3). Ten-liter fermentation batches were grown in Rich PO4 media with 0.1 mg/mL Ampicillin at 25° C. for 12 hours, cooled to […] and held at that temperature for 36 hours to a density of OD600=14. […]
Typically 25-50 g of cell paste is resuspended in 250-500 mL TBS, pH 8.0 (25 mM Tris, 150 mM NaCl). […] After washing to baseline absorbance with equilibration buffer, the column is washed with approximately one column volume of TBS pH-8.0 containing 95 mM imidazole. […] After washing to baseline absorbance with the dilution buffer the protein is eluted with a gradient from 50-500 mM NaCl. […]

Structure (SMILES): C[C@H](CC[C@@H]1OC1(C)C)[C@H]1CC[C@H]2[C@@H]3CC=C4C[C@@H](O)CC[C@]4(C)[C@H]3CC[C@]12C [24(S),25-epoxycholesterol]
- reading (fluorescence units) [1]: 20000 fluorescence units
- reading (fluorescence units) [2]: 20000 fluorescence units

— patent US7323494B2, “Compounds and methods” (SmithKline Beecham Corporation, priority 2002, dated 2008)
